Assay results taken from US11292773B2, “Small molecule inhibitors of BCL-2-associated death promoter (BAD) phosphorylation” (NATIONAL UNIVERSITY OF SINGAPORE, priority 2017, dated 2022).

Key:
MCF7 xenograft = MCF7 xenograft in BALB/c-nu female mice; format: in vivo
Experimental: (A) Measurement of tumour volume in BALB/c-nu female mice as described in materials and methods. Animals (n=5 each group) were treated with vehicle, 5 mg/kg NPB or 20 mg/kg NPB, and relative tumour burden was recorded. Animal weight was measured daily for the duration of the experiment. (B) Tumours were excised after the NPB treatment regime and weighed. Representative resected tumours are shown in the right side. (C) WB of tumour tissue to determine levels of p-BAD (Ser99) and BAD. Soluble whole cell extracts were run on an SDS-PAGE and immunoblotted as described in methodology. β-ACTIN was used as an input control. The sizes of detected protein bands in kDa are shown on the left side. (D) Histological analyses of phospho-BAD, BAD, Ki67 and TUNEL staining. […] Apoptotic DNA fragmentation was detected using TUNEL Apoptosis Detection Kit (Gen Script USA Inc.) as described in methodology. Statistical significance was assessed by an unpaired two-tailed Student's t-test (P<0.05 was considered as significant) using GraphPad Prism5. The point represents mean of triplicate experiments; bars, ±SD. **P<0.001, *P<0.05.
5- to 6-week-old BALB/c-nu female mice were subcutaneously implanted with 17β-estradiol pellets (Innovative Research of America) at 0.72 mg/pellet with a 60-day release in the scruff of the neck after three days mice were injected subcutaneously with 100 μl of cell suspension (1×10^7 cells) in right flanks. Tumour growth was monitored by measuring the tumour size using callipers. About 12 days after implantation, mice were randomized and divided into three groups (each group, n=8), according to treatments administered 200 μl of NPB (dissolved in 5% DMSO, 50% PEG400 and 45% water pH 5.0) by intraperitoneal injection every day for seven days. The first group of mice was treated with vehicle, the second with 5 mg/kg dose of NPB, and the third with 20 mg/kg dose of NPB. Animal weight and tumour volumes were measured daily. After completion tumours were excised, photographed, weighed, and fixed or stored in liquid nitrogen for later analysis. Histological analysis was performed as previously described (30-32).
We examined the in vivo efficacy of NPB in a xenograft (MCF7) of MC. Randomly grouped mice with preformed tumours (volume ˜[…]) were injected intraperitoneally with vehicle or NPB at 5 mg/kg or 20 mg/kg. […] However, the tumour weight of NPB-treated animals was reduced compared to vehicle-treated mice and in a dose-dependent manner (FIG. 17B). We further analysed the effect of NPB on hBAD Ser99 phosphorylation levels in tumour tissue using WB analysis (FIG. 17C).

MCF7 cells = assay: AlamarBlue cell viability assay; format: cell-based; details: Homo sapiens, read-out: IC50 (antiproliferative)
From the text: We initially investigated the effect of newly synthesized small molecule compounds against MCF7 cells (ER+ MC cells) using an AlamarBlue® cell viability assay. Among the series of novel small molecule compounds, NPB was identified as an efficacious small molecule compound reducing viability of MCF7 cells compared to vehicle (DMSO) treated cells. […] We next determined the inhibitory concentration 50% (IC50) of NPB in wide-range of carcinoma cell lines including those derived from ER− mammary (BT549, MDA-MB-231), ER+ mammary (MCF7, T47D, and BT474), endometrial (Ishikawa, ECC-1, RL95-2, and AN3), ovarian (SK-OV-3, OVCAR-2, Caov-3, HEY C2, and OVCA433), hepatocellular (Hep3B, H2P, and H2M), colon (HCT116, DLD-1, and Caco-2), prostate (PC3, LNCaP, and DU145) and pancreatic (AsPC-1, BxPC-3) carcinoma. As normal cell controls, we also included immortalized mammary epithelial cells (MCF10A and MCF12A), and immortalized hepatocytes (LO2) in the panel of cell lines.

[1] = molecular target: T1, hBAD Ser99 phosphorylation (Homo sapiens, UniProt Q92934); assay: Western blot of BAD Ser99 phosphorylation in MCF7 cells; format: cell-based
T1 construct: endogenous in cells; host or cells: MCF7 (A6); 25 carcinoma cell lines of seven cancer types (A7)
T1 sequence (Q92934 1-168): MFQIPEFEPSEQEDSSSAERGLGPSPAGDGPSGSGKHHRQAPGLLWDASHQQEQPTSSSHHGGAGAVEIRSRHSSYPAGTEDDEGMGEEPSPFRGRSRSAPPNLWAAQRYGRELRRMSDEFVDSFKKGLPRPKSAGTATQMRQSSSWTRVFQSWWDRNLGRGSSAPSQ
Experimental: (A) Sensorgrams obtained by SPR analysis of NPB with the BAD protein subunit. The BAD protein subunit was immobilized onto the surface of a CM5 sensor chip. A solution of NPB at variable concentrations (20-100 μM) was injected to generate result binding responses (RU) recorded as a function of time (sec). The results were analyzed using BIA evaluation 3.1. (B) Western blot (WB) analysis was used to assess the level of Ser99 phosphorylation of BAD in MCF7 cells after treatment with NPB. (Below) Calculated IC50 of NPB from dose-response for BAD phosphorylation (Ser99), BAD and β-ACTIN as in shown above by use of ImageJ software from NIH, USA (http://imagej.nih.gov/ij/). (C) WB analysis was used to assess the level of a multiple proteins involved upstream of BAD in MCF7 cells after treatment with NPB. (D) WB analysis was used to assess the level of a multiple protein involved cell survival and cell proliferation in MCF7 cells after treatment with NPB. For WB analysis, soluble whole cell extracts were run on an SDS-PAGE and immunoblotted as described in methodology. β-ACTIN (ACTB) was used as an input control for cell lysate. The sizes of detected protein bands in kDa are shown on the left side.
Phosphorylation of hBAD at residues Ser-75 (mouse BAD serine residue 112) and Ser-99 (mouse BAD serine residue 136) are crucial in regulating the activity of the BCL-2 family of anti-apoptotic proteins. hBAD phosphorylation either at Ser-75 or Ser99 (or the corresponding residues in mouse bad) results in loss of the ability of hBAD to heterodimerize with BCL-xL or BCL-2 [15]. To further validate the predicted target, we first analyzed the effect of NPB on phosphorylation of hBAD at Ser99 by western blot analysis.

[2] = 5 mg/kg or 20 mg/kg intraperitoneal, daily for seven days, vs vehicle
[3] = histological analysis, vs vehicle
[4] = tumour tissue, western blot, vs control

animal weight (MCF7 xenograft; [2]): not significantly different | IC50 (MCF7 cells): 6.5 µM | phosphorylation of hBAD Ser99 [1]: dose dependent decrease | total hBAD protein [1]: without a significant change | EC50 ([1]; ImageJ, read-out: EC50 for inhibition of BAD Ser99 phosphorylation): 0.41 ± 0.21 µM
SMILES: O=C(NC1CCCC1)c1cccc(C(c2ccccc2O)N2CCN(c3cccc(Cl)c3Cl)CC2)c1 (stereo not drawn) [NPB, N-cyclopentyl-3-((4-(2,3-dichlorophenyl)piperazin-1-yl)(2-hydroxyphenyl)methyl) benzamide]
tumour volume (MCF7 xenograft; [2]): significant reduction | tumour weight (MCF7 xenograft; 5 mg/kg or 20 mg/kg intraperitoneal, dose-dependent, vs vehicle): reduced | TUNEL positivity in tumours (MCF7 xenograft; [3]): significantly increased | p-BAD (Ser99) in tumour specimens (histology) (MCF7 xenograft; [3]): significantly reduced | percentage of Ki67 positive cells in tumours (MCF7 xenograft; [3]): significantly decreased | phosphorylation of BAD (at Ser99) in tumour tissue (WB) (MCF7 xenograft; [4]): significantly inhibited | total levels of BAD protein in tumours (WB) (MCF7 xenograft; [4]): No change
